The values that follow come from patent US5324725A, “7-fused 2-(piperazinoalkyl) indole derivatives, intermediates and compositions thereof” (Kali-Chemie Pharma GmbH, priority 1991, dated 1994).

Each structure is given as a SMILES string.

Test [1] deals with T1, cyclooxygenase (Mus musculus, UniProt P22437).
T1 construct: A cell suspension containing peritoneal cells of male mice 8-10 weeks old was obtained; endogenous in cells; host or cells: mouse peritoneal macrophages (male mice 8-10 weeks old), zymosan-stimulated
T1 sequence (P22437 27-602): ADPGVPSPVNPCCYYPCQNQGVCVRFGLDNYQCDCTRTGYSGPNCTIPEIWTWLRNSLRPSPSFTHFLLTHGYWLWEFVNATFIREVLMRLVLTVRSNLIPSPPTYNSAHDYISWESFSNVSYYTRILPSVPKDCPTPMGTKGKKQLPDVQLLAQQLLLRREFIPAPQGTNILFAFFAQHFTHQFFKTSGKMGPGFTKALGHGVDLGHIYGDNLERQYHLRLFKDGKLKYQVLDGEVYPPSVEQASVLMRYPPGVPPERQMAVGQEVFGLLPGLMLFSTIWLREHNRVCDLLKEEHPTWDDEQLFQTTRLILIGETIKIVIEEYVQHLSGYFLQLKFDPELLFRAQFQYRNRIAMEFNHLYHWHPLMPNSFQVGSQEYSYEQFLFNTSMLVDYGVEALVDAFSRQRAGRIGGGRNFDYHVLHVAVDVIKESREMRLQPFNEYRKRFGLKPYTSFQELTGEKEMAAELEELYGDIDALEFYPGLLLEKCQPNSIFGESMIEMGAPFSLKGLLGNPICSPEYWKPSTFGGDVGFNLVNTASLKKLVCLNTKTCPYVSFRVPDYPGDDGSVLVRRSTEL
The test can be described thus: Cyclooxygenase inhibition: release of 6-keto-PGF1 α from zymosan-stimulated mouse peritoneal macrophage cells. In kind it is cell-based. Conditions: 10^-5 mol/l, read-out: In vitro % inhibition effect on the release of 6-keto-PGF1 α. From the text:
(§1) 5. In vitro determination of cyclooxygenase inhibition and 5-lipoxygenase inhibition.
(§2) After activation of the cell, arachidonic acid contained in cell membranes is metabolized in two ways. Leukotrienes, inter alia leukotriene C4, are formed under the action of the enzyme 5-lipoxygenase (5-LO), and prostanoids are formed under the action of the enzyme cyclooxygenase (CO). In in vitro systems, the metabolites are secreted from the cell.
(§3) To investigate the cyclooxygenase-inhibiting and the 5-lipoxygenase-inhibiting properties, the inhibitory effect of the test substances on the biosynthesis of the arachidonic acid derivatives leukotriene C4 (LTC4) and 6-ketoprostaglandin F1 α (6-keto-PGF1 α) is determined in vitro on mouse peritoneal macrophage cells. This was accomplished by determining the LTC4 and 6-keto-PGF1 α contents in a culture medium of mouse peritoneal macrophage cells by zymosan stimulation as described by Scott et al. (J. Exp. Med. 152 (1980), 324-335) and by Fradin et al. (Prostaglandins, 33 (1987), 579-589).
(§4) A cell suspension containing peritoneal cells of male mice 8-10 weeks old was obtained in a known manner. A commercially available cell culture solution (RPMI 1640 from Messrs. Gibco) was used to which heparin (I0 international units/ml) and antibiotics were added according to the recipe of Bonney et al. (Biochem. J. 176 (1978) 422-433). The cell suspension was adjusted to a cell concentration of 10^6 cells per ml and distributed uniformly on titer plates containing […] (wells). These were kept for two hours in a humidified incubator filled with air enriched with 7% CO2. Cells not adhering to the titer cell walls were then removed by washing. The remaining macrophage cells adhering to the walls were incubated for about 12 hours in a suspension medium to which 0.1% bovine serum albumin (BSA) were added. The suspension medium was then replaced by a Hanks balanced salt solution (HBSS) containing 10 mM Hepes (hydroxyethyl-piperazinoethanesulfonic acid), to which a 0.1% strength solution of the test substances in aqueous, 1% strength dimethylformamide or only the solvent had been added. After 15 minutes the arachidonic acid metabolism was stimulated by adding 10 particles of zymosan (=glycoproteinmixture, isolated from cell walls of beer yeast, Saccharomyces cerevisiae, manufactured by Sigma Chemical Co., Munich) per titer cell. After 2 hours, samples of each of the supernatant liquids were investigated for their 6-keto-PGF1 α and LTC4 contents by means of an enzyme immunoassay (EIA) carried out by the method of Pradelles et al. (Analytical Chem. 57 (1985), 1170-1173). The determination of LTC4 and the determination of 6-keto-PGF1 α were each carried out in comparison with a comparative scale on suitable dilutions of the samples (1:50 to 1:250 for the LTC4 determination and 1:250 to 1:1250 for the 6-keto-PGF1 α determination). To determine the inhibitory effect of a 10^-5 molar concentration of the compounds, the amount of reference eicosanoids was determined and the inhibitory effect was calculated from this in % inhibition compared to the measurements of the zymosan controls.

The target of test [2] is T2, 5-lipoxygenase (Mus musculus, UniProt P48999).
T2 construct: A cell suspension containing peritoneal cells of male mice 8-10 weeks old was obtained; endogenous in cells; host or cells: mouse peritoneal macrophages (male mice 8-10 weeks old), zymosan-stimulated
T2 sequence (P48999 1-674): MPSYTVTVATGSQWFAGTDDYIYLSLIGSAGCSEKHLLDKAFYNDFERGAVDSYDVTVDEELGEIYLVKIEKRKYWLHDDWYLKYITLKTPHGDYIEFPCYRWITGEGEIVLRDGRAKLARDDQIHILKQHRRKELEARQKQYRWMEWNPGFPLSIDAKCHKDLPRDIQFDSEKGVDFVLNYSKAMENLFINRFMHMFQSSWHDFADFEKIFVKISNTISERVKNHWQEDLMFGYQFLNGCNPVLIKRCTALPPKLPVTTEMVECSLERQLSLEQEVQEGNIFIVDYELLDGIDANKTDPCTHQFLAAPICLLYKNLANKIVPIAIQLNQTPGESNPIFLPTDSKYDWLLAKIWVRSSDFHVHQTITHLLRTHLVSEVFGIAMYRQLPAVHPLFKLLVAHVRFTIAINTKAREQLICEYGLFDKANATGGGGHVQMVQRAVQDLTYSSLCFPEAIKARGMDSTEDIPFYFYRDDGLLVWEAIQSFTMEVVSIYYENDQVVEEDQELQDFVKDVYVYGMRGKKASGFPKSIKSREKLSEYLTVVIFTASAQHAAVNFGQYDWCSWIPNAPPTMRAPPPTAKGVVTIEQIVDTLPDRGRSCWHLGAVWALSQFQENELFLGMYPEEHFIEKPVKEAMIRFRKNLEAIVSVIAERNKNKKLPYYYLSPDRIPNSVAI
The test can be described thus: 5-lipoxygenase inhibition: release of LTC4 from zymosan-stimulated mouse peritoneal macrophage cells. In kind it is cell-based. Particulars: 10^-5 mol/l, read-out: In vitro % inhibition effect on the release of LTC4.
From the text: as §1, §2, §3, §4

What is called inhibition is how much of the control response was suppressed. On to `CCCCC1CCc2cc(O)cc3c(CCN4CCN(c5cc(C)ccn5)CC4)c(C)n1c23` (centres unmarked) [Example 76], for which the inhibition at 10 µM in test [1] came out at 67%; in test [2] it was 75%.

`Cc1ccnc(N2CCN(CCc3c(-c4ccc(OCCCCO)cc4)n4c5c(cccc35)CCC4)CC2)c1` [Example 12, 2-[4-(4-Hydroxybutyloxy)-phenyl]-1-{2-[4-(4-methylpyridin-2-yl)piperazin-1-yl]ethyl}-5,6-dihydro-4H-pyrrolo[3,2,1-ij]quinoline]: the inhibition at 10 µM in test [1] is 53%; in test [2] it was 97%.

As for `Cc1ccnc(N2CCN(CCc3c(C)n4c5c(ccc(Cl)c35)OCC4)CC2)c1` [Example 35], the results for the inhibition at 10 µM in test [1] and in test [2] were 51% and 75%, respectively.

On to `CC(C)=Cc1cc2c3c(c1)c(CCN1CCN(c4cc(C)ccn4)CC1)c(C)n3CCC2` [Example 26, 5,6-Dihydro-2-methyl-8-(2-methylprop-1-enyl)-1-{2-[4-(4-methylpyridin-2-yl)piperazin-1-yl]ethyl}-4H-pyrrolo[3,2,1-ij]quinoline], for which the values for the inhibition at 10 µM in test [1] and in test [2] were 68% and 89%, respectively.

In the case of `Cc1ccnc(N2CCN(CCc3c(C)n4c5c(c(Cl)cc(Cl)c35)OCC4)CC2)c1` [Example 79], the inhibition at 10 µM in test [1] came to 52%; in test [2] it was 71%.

As to `Cc1cc2c3c(c1)c(CCN1CCC(C(=O)c4ccc(F)cc4)CC1)c(C)n3CCC2` [Example 55], the inhibition at 10 µM in test [1] came to 41%; in test [2], 45%.

Take `Cc1ccnc(N2CCN(CCc3c(-c4ccc(O)cc4)n4c5c(cccc35)CCC4)CC2)c1` [Example 8, 2-(4-hydroxyphenyl)-1-{2-[4-(4-methylpyridin-2-yl)piperazin-1-yl]ethyl}-5,6-dihydro-4H-pyrrolo[3,2,1-ij]quinoline]: the results for the inhibition at 10 µM in test [1] and in test [2] were 74% and 99%, respectively.

As for `Cc1ccnc(N2CCN(CCc3c(C)n4c5c(cc(Cc6ccccc6)cc35)CCC4)CC2)c1` [Example 77], the inhibition at 10 µM in test [1] was 42%; in test [2] it was 74%.

With `COc1ccc(C2CCc3cc(OC)cc4c(CCN5CCN(c6cc(C)ccn6)CC5)c(C)n2c34)cc1` (centres unmarked) [Example 65], the inhibition at 10 µM is 52% in test [1] and 89% in test [2].

In the case of `Cc1ccnc(N2CCN(CCc3c(C)n4c5c(cc(CC(C)C)cc35)CCC4)CC2)c1` [Example 21, 5,6-Dihydro-2-methyl-8-(2-methylpropyl)-1-{2-[4-(4-methylpyridin-2-yl)piperazin-1-yl]ethyl}-4H-pyrrolo[3,2,1-ij]quinoline], the results for the inhibition at 10 µM in test [1] and in test [2] were 64% and 95%, respectively.

`Cc1ccnc(N2CCN(CCc3c(C)n4c5c(cccc35)CCC4)CC2)c1` [Example 1, 5,6-Dihydro-2-methyl-1-{2-[4-(4-methylpyridin-2-yl)piperazin-1-yl]ethyl}-4H-pyrrolo[3,2,1-ij]quinoline]: the inhibition at 10 µM in test [1] amounted to 23%; in test [2] it was 24%.

Consider `CCc1c(C(O)CN2CCN(c3cc(C)ccn3)CC2)c2cccc3c2n1CCC3` (centres unmarked) [Example 14, 2-Ethyl-5,6-dihydro-1-{2-[4-(4-methylpyridin-2-yl)piperazin-1-yl]-1-hydroxyethyl}-4H-pyrrolo[3,2,1-ij]quinoline], for which the inhibition at 10 µM in test [1] is 25%; in test [2], 55%.

As to `CC(=O)c1cc2c3c(c1)c(CCN1CCN(c4cc(C)ccn4)CC1)c(C)n3CCC2` [Example 67], the inhibition at 10 µM came to 36% in test [1] and 66% in test [2].

As for `Cc1ccnc(N2CCN(CCc3c(C)n4c5c(cccc35)CC4C)CC2)c1` (centres unmarked) [Example 33], the inhibition at 10 µM in test [1] stood at 21%; in test [2] it was 4%.

Turning to `Cc1ccnc(N2CCN(CCc3c(C)n4c5c(c(C(O)C(C)C)ccc35)SCC4)CC2)c1` (centres unmarked) [Example 89], the figures for the inhibition at 10 µM in test [1] and in test [2] were 32% and 51%, respectively.

Take `Cc1ccnc(N2CCN(CCc3c(C)n4c5c(cc(N)cc35)CCC4)CC2)c1` [Example 20, 8-Amino-5,6-dihydro-2-methyl-1-{2-[4-(4-methylpyridin-2-yl)piperazin-1-yl]ethyl}-4H-pyrrolo[3,2,1-ij]quinoline]: the inhibition at 10 µM was found to be 42% in test [1] and 0% in test [2].

As for `Cc1ccnc(N2CCN(CCc3c(C)n4c5c(cc(C(=O)C6CCCCC6)cc35)CCC4)CC2)c1` [Example 83], the results for the inhibition at 10 µM in test [1] and in test [2] were 29% and 34%, respectively.

Regarding `Cc1ccnc(N2CCN(CCc3c(C)n4c5c(cccc35)CCC4c3ccccc3)CC2)c1` (centres unmarked) [Example 3, 5,6-dihydro-2-methyl-4-phenyl-1-{2-[4-(4-methylpyridine-2-yl)piperazin-1-yl]-ethyl}-4H-pyrrolo[3,2,1-ij]quinoline], the inhibition at 10 µM in test [1] worked out at 20%; in test [2], 37%.

As to `C=CCCC1CCc2cccc3c(CCN4CCN(c5cc(C)ccn5)CC4)c(C)n1c23` (centres unmarked) [Example 62], the inhibition at 10 µM in test [1] was found to be 64%; in test [2], 94%.

As to `Cc1c(CCN2CCN(c3ccc(Br)cn3)CC2)c2cccc3c2n1CCC3` [Example 43], the figures for the inhibition at 10 µM in test [1] and in test [2] were 57% and 24%, respectively.

`Cc1ccnc(N2CCN(CCc3c(CO)n4c5c(cccc35)CCC4)CC2)c1` [Example 16, 5,6-dihydro-2-hydroxymethyl-1-{2-[4-(4-methylpyridin-2-yl)piperazin-1-yl]ethyl}-4H-pyrrolo[3,2,1-ij]quinoline]: the inhibition at 10 µM in test [1] was 18%; in test [2], 17%.

Turning to `Cc1ccnc(N2CCN(CCc3c(C)n4c5c(cc(C(=O)C(C)C)cc35)CCC4)CC2)c1` [Example 27, 5,6-dihydro-2-methyl-8-(2-methyl-1-oxopropyl)-1-{2-[4-(4-methylpyridin-2-yl)piperazin-1-yl]ethyl}-4H-pyrrolo-[3,2,1-ij]quinoline], the results for the inhibition at 10 µM in test [1] and in test [2] were 10% and 61%, respectively.
